Assay results as given in patent publication US7880007B2, “Bicyclic substituted phenyl piperidine modulators of muscarinic receptors” (Vertex Pharmaceuticals Incorporated, priority 2004, dated 2011).

Assays:
Assay type in all cases: cell-based
M3 muscarinic receptor = biological target: T1, M3 muscarinic receptor (Homo sapiens, UniProt P20309); assay: Functional mobilization of intracellular calcium (FLIPR), M3-CHO cells; conditions: for Emax: 100% efficacy = maximum response obtained with the Carbachol control; for M3 Activity: M3-CHO cells, calcium mobilization (FLIPR)
T1 construct: expressed in transfected cells; host or cells: CHO (M3-CHO)
In short: (§1)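 CHO cells expressing human M1–M4 receptors loaded with Fluo-3 AM or Calcium 3 dye (1 mM probenecid, pH 7.4); 0.5% DMSO final. Agonist mode: compound added directly; antagonist mode: 15 min pre-incubation or co-application, then carbachol at EC80. Fluorescence read 60 s on FLIPR; efficacy relative to carbachol maximum.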

M1 muscarinic receptor = biological target: T2, M1 muscarinic receptor (Homo sapiens, UniProt P11229); assay: Functional mobilization of intracellular calcium (FLIPR), M1-CHO cells; conditions: for Emax: 100% efficacy = maximum response obtained with the Carbachol control; for M1 Activity: M1-CHO cells, calcium mobilization (FLIPR)
T2 construct: expressed in transfected cells; host or cells: CHO (M1-CHO)
T2 sequence (P11229 1-460): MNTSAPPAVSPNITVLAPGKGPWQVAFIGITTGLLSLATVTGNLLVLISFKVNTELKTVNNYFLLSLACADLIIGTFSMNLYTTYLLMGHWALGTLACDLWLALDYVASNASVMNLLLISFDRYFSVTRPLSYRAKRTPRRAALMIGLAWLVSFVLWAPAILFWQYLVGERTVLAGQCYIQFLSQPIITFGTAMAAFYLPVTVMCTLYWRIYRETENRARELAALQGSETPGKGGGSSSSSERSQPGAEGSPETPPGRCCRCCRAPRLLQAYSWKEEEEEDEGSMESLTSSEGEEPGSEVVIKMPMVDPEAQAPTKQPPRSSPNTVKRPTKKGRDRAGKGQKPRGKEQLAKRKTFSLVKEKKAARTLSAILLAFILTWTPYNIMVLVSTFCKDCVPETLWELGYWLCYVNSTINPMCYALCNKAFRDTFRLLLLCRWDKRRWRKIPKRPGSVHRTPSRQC
In short: as §1

M4 muscarinic receptor = biological target: T3, M4 muscarinic receptor (Homo sapiens, UniProt P08173); assay: Functional mobilization of intracellular calcium (FLIPR), M4-CHO cells; conditions: for Emax: 100% efficacy = maximum response obtained with the Carbachol control; for M4 Activity: M4-CHO cells, calcium mobilization (FLIPR)
T3 construct: expressed in transfected cells; host or cells: CHO (M4-CHO)
T3 sequence (P08173 1-479): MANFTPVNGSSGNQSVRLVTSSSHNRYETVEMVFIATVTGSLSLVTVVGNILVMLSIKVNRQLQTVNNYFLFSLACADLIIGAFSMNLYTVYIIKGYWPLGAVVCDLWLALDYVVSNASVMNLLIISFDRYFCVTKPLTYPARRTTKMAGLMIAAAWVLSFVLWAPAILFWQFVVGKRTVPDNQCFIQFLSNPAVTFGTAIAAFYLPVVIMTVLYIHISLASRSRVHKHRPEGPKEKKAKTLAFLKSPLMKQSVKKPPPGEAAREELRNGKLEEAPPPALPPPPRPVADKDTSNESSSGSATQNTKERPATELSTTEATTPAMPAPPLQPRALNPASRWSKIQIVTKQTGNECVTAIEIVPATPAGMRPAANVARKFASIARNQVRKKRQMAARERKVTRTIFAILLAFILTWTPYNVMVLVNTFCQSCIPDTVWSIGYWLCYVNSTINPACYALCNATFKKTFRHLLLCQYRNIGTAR
In short: as §1

M2 muscarinic receptor = biological target: T4, M2 muscarinic receptor (Homo sapiens, UniProt P08172); assay: Functional mobilization of intracellular calcium (FLIPR), M2-CHO cells; conditions: for Emax: 100% efficacy = maximum response obtained with the Carbachol control; for M2 Activity: M2-CHO cells, calcium mobilization (FLIPR)
T4 construct: expressed in transfected cells; host or cells: CHO (M2-CHO)
T4 sequence (P08172 1-466): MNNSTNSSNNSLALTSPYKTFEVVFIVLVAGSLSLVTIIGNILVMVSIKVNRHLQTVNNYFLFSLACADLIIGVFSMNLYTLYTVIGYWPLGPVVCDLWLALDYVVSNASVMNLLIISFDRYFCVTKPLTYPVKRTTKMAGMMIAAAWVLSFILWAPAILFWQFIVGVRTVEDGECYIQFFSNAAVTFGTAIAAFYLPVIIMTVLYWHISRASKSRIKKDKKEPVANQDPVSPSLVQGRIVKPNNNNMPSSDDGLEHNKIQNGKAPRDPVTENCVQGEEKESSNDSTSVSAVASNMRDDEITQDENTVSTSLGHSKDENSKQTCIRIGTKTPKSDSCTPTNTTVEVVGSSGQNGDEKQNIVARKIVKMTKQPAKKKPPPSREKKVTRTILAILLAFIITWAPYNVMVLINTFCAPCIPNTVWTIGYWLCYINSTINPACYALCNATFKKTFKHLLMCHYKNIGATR
In short: as §1

T1 sequence (P20309 whole entry): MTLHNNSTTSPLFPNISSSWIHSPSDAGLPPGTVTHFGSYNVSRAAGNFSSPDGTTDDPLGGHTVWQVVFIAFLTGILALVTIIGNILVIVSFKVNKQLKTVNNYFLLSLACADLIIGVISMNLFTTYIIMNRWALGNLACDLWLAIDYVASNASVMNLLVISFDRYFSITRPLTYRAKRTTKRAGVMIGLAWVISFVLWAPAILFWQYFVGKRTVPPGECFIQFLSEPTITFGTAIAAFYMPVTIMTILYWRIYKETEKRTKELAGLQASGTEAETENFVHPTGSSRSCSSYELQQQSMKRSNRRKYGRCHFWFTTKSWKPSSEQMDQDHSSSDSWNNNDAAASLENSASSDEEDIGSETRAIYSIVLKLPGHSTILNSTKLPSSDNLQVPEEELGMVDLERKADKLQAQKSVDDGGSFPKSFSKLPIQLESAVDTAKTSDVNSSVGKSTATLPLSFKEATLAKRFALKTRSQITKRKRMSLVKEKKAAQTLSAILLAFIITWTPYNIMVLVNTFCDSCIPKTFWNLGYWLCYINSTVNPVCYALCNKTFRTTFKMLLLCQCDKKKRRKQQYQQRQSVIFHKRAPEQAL

| Structure (SMILES) | Emax (M3 muscarinic receptor) [%] | M3 Activity (M3 muscarinic receptor) | Emax (M1 muscarinic receptor) [%] | M1 Activity (M1 muscarinic receptor) | Emax (M4 muscarinic receptor) [%] | M4 Activity (M4 muscarinic receptor) | Emax (M2 muscarinic receptor) [%] | M2 Activity (M2 muscarinic receptor) |
| --- | --- | --- | --- | --- | --- | --- | --- | --- |
| CCOC(=O)N1CCC(CN2CCC(c3cc(-c4ccc(C(=O)NC)c(Cl)c4)ccc3OC)CC2)CC1 [Compound 298] | < 25 | + (activity was measured to be greater than 5.0 μM) | 25 to 100 | ++ (activity was measured to be from 1.0 μM to 5.0 μM) | 25 to 100 | +++ (activity was measured to be less than 1.0 μM) | < 25 | + (activity was measured to be greater than 5.0 μM) |
| COc1ccc(Cl)cc1C1CCN(C2(C)CCCCC2)CC1 [Compound 300, 4-(5-chloro-2-methoxyphenyl)-1-(1-methylcyclo-hexyl)piperidine] | < 25 | + (activity was measured to be greater than 5.0 μM) | 25 to 100 | ++ (activity was measured to be from 1.0 μM to 5.0 μM) | 25 to 100 | +++ (activity was measured to be less than 1.0 μM) | 25 to 100 | ++ (activity was measured to be from 1.0 μM to 5.0 μM) |
| Cc1ccccc1-c1ccccc1C1CCN([C@H]2C[C@H]3CC[C@H]2C3)CC1 [Compound 302] | < 25 | + (activity was measured to be greater than 5.0 μM) | < 25 | + (activity was measured to be greater than 5.0 μM) | 25 to 100 | ++ (activity was measured to be from 1.0 μM to 5.0 μM) | < 25 | + (activity was measured to be greater than 5.0 μM) |
| COc1c(F)cc(F)cc1C1CCN(C2CCOCC2)CC1 [Compound 305] | < 25 | + (activity was measured to be greater than 5.0 μM) | < 25 | + (activity was measured to be greater than 5.0 μM) | 25 to 100 | ++ (activity was measured to be from 1.0 μM to 5.0 μM) | < 25 | + (activity was measured to be greater than 5.0 μM) |
| CCOC(=O)N1CCC(CN2CCC(c3ccccc3C)CC2)CC1 [Compound 306] | 25 to 100 | +++ (activity was measured to be less than 1.0 μM) | 25 to 100 | +++ (activity was measured to be less than 1.0 μM) | 25 to 100 | +++ (activity was measured to be less than 1.0 μM) | 25 to 100 | +++ (activity was measured to be less than 1.0 μM) |
| COc1ccccc1C1CCN(CC2CC3C=CC2C3)CC1 (stereo not drawn) [Compound 307] |  | + (activity was measured to be greater than 5.0 μM) | 25 to 100 | ++ (activity was measured to be from 1.0 μM to 5.0 μM) | 25 to 100 | +++ (activity was measured to be less than 1.0 μM) | 25 to 100 | + (activity was measured to be greater than 5.0 μM) |
| COc1ccc(Cl)cc1C1(F)CCN([C@@H]2C[C@H]3CC[C@H]2C3)CC1 [Compound 309] | < 25 | + (activity was measured to be greater than 5.0 μM) | 25 to 100 | + (activity was measured to be greater than 5.0 μM) | 25 to 100 | ++ (activity was measured to be from 1.0 μM to 5.0 μM) | 25 to 100 | ++ (activity was measured to be from 1.0 μM to 5.0 μM) |
| COc1cc(F)c(F)c(C2CCN(C3CC4CCC(C4)C3)CC2)c1 (stereo not drawn) [Compound 310] | < 25 | + (activity was measured to be greater than 5.0 μM) | < 25 | + (activity was measured to be greater than 5.0 μM) | 25 to 100 | +++ (activity was measured to be less than 1.0 μM) | < 25 | + (activity was measured to be greater than 5.0 μM) |
